Assay results reported in patent US8952024B2, “Herbicidal pyrimidone derivatives” (E I du Pont de Nemours and Company, priority 2009, dated 2015).

What was measured:
Format in all cases: in vivo
[1] = test system: umbrella sedge (Cyperus difformis); assay: Test B flooded paddy test; settings: for Plant response rating, Flood, Sedge, Umbrella: 250 g ai/ha, flooded paddy test, visual rating on 0 to 100 scale (0 no effect, 100 complete control) after 13 to 15 days; for Plant response rating, Sedge, Umbrella: Flood (flooded paddy test), 13 to 15 days
How it was run: (§1)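 Seedlings reaching 2 leaves are flooded 3 cm deep; test material is delivered to that water, which stays at the same depth. Plants remain in a greenhouse 13–15 days and are then scored by eye versus controls from 0 to 100.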

[2] = test system: ducksalad (Heteranthera limosa); assay: Test B flooded paddy test; settings: for Plant response rating, Flood, Ducksalad: 250 g ai/ha, flooded paddy test, visual rating on 0 to 100 scale (0 no effect, 100 complete control) after 13 to 15 days; for Plant response rating, Ducksalad: Flood (flooded paddy test), 13 to 15 days
How it was run: as §1

rice (Oryza sativa) = assay: Test B flooded paddy test; settings: for Plant response rating, Flood, Rice: 250 g ai/ha, flooded paddy test, visual rating on 0 to 100 scale (0 no effect, 100 complete control) after 13 to 15 days; for Plant response rating, Rice: Flood (flooded paddy test), 13 to 15 days
How it was run: as §1

[3] = test system: barnyardgrass (Echinochloa crus-galli); assay: Test B flooded paddy test; settings: for Plant response rating, Flood, Barnyardgrass: 250 g ai/ha, flooded paddy test, visual rating on 0 to 100 scale (0 no effect, 100 complete control) after 13 to 15 days; for Plant response rating, Barnyardgrass: Flood (flooded paddy test), 13 to 15 days
How it was run: as §1

[4] = test system: large crabgrass (Digitaria sanguinalis); assay: Test A pre-/postemergence plant response
How it was run: (§2)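 Both pre- and postemergence treatments are applied simultaneously, using chemicals formulated in a non-phytotoxic solvent mixture with surfactant. Postemergence plants are 2–10 cm high with one to two leaves. After approximately ten days in a greenhouse, injury is scored visually from 0 (none) to 100 (complete control) relative to untreated plants.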

[5] = test system: velvetleaf (Abutilon theophrasti); assay: Test A pre-/postemergence plant response
How it was run: as §2

corn (Zea mays) = assay: Test A pre-/postemergence plant response
How it was run: as §2

[6] = test system: wheat (Triticum aestivum); assay: Test A pre-/postemergence plant response
How it was run: as §2

[7] = test system: barnyardgrass (Echinochloa crus-galli); assay: Test A pre-/postemergence plant response
How it was run: as §2

[8] = test system: morningglory (Ipomoea spp.); assay: Test A pre-/postemergence plant response
How it was run: as §2

[9] = test system: giant foxtail (Setaria faberii); assay: Test A pre-/postemergence plant response
How it was run: as §2

[10] = test system: pigweed (Amaranthus retroflexus); assay: Test A pre-/postemergence plant response
How it was run: as §2

[11] = 31 g ai/ha, scale of 0 to 100 where 0 is no effect and 100 is complete control
[12] = 62 g ai/ha, scale 0 to 100, 0 is no effect, 100 is complete control
[13] = 125 g ai/ha, scale 0 to 100, 0 is no effect, 100 is complete control
[14] = Postemergence, 125 g ai/ha, visual injury, 0 to 100 scale (0 no effect, 100 complete control), approx. ten days
[15] = Postemergence, 500 g ai/ha, 0 to 100 scale, 0 = no effect, 100 = complete control, approx. ten days
[16] = Preemergence, 125 g ai/ha, 0 to 100 scale, 0 = no effect, 100 = complete control
[17] = Preemergence, 500 g ai/ha, visual injury, 0 to 100 scale (0 no effect, 100 complete control), approx. ten days
[18] = 62 g ai/ha, scale of 0 to 100 where 0 is no effect and 100 is complete control
[19] = Flood, 31 g ai/ha, scale 0 to 100 (0 no effect, 100 complete control)
[20] = Postemergence, 125 g ai/ha, 0 to 100 scale where 0 is no effect and 100 is complete control
[21] = Postemergence, 500 g ai/ha, visual injury, 0 to 100 scale (0 no effect, 100 complete control), approx. ten days
[22] = Preemergence, 500 g ai/ha, 0 to 100 scale, 0 = no effect, 100 = complete control

With `CCn1ncc(C(=O)c2cnc(-c3ccccc3)n(-c3ccccc3)c2=O)c1OS(=O)(=O)c1ccc(C)cc1` [Compound 16] the “Plant response rating, Flood, Sedge, Umbrella” value [1] was 50, the “Plant response rating, Sedge, Umbrella” value [1, 11] was 0 and the “Plant response rating, Sedge, Umbrella” value [1, 12] was 0. For the same molecule, the “Plant response rating, Sedge, Umbrella” value [1, 13] was 40, the “Plant response rating, Flood, Ducksalad” value [2] was 75 and the “Plant response rating, Ducksalad” value [2, 11] was 0. For the same molecule, the “Plant response rating, Ducksalad” value [2, 12] was 40, the “Plant response rating, Ducksalad” value [2, 13] was 75 and the “Plant response rating, Flood, Rice” value (rice (Oryza sativa)) was 10. For the same molecule, the “Plant response rating, Rice” value (rice (Oryza sativa); [11]) was 0, the “Plant response rating, Rice” value (rice (Oryza sativa); [12]) was 0 and the “Plant response rating, Rice” value (rice (Oryza sativa); [13]) was 0. The “Plant response rating, Flood, Barnyardgrass” value [3] was 10, the “Plant response rating, Barnyardgrass” value [3, 11] was 0 and the “Plant response rating, Barnyardgrass” value [3, 12] was 0. For the same molecule, the “Plant response rating, Barnyardgrass” value [3, 13] was 0, the “Crabgrass, Large plant response rating” value [4, 14] was 10 and the “Plant response rating, Crabgrass, Large” value [4, 15] was 40. The “Plant response rating, Crabgrass, Large” value [4, 16] was 40, the “Plant response rating, Crabgrass, Large” value [4, 17] was 70 and the “Velvetleaf plant response rating” value [5, 14] was 70. For the same molecule, the “Plant response rating, Velvetleaf” value [5, 15] was 100, the “Plant response rating, Velvetleaf” value [5, 16] was 0 and the “Plant response rating, Velvetleaf” value [5, 17] was 40. The “Corn plant response rating” value (corn (Zea mays); [14]) was 0, the “Plant response rating, Corn” value (corn (Zea mays); [15]) was 20 and the “Plant response rating, Corn” value (corn (Zea mays); [16]) was 0. The “Plant response rating, Corn” value (corn (Zea mays); [17]) was 20, the “Wheat plant response rating” value [6, 14] was 0 and the “Plant response rating, Wheat” value [6, 15] was 10. The “Plant response rating, Wheat” value [6, 16] was 0, the “Plant response rating, Wheat” value [6, 17] was 0 and the “Barnyardgrass plant response rating” value [7, 14] was 20. The “Plant response rating, Barnyardgrass” value [7, 15] was 60, the “Plant response rating, Barnyardgrass” value [7, 16] was 0 and the “Plant response rating, Barnyardgrass” value [7, 17] was 70. For the same molecule, the “Morningglory plant response rating” value [8, 14] was 10, the “Plant response rating, Morningglory” value [8, 15] was 20 and the “Plant response rating, Morningglory” value [8, 16] was 0. The “Plant response rating, Morningglory” value [8, 17] was 0, the “Foxtail, Giant plant response rating” value [9, 14] was 30 and the “Plant response rating, Foxtail, Giant” value [9, 15] was 70. For the same molecule, the “Plant response rating, Foxtail, Giant” value [9, 16] was 30, the “Plant response rating, Foxtail, Giant” value [9, 17] was 70 and the “Pigweed plant response rating” value [10, 14] was 50. The “Plant response rating, Pigweed” value [10, 15] was 70, the “Plant response rating, Pigweed” value [10, 16] was 30 and the “Plant response rating, Pigweed” value [10, 17] was 50.
With `Cc1cccc(-c2ncc(C(=O)C3=C(O)CCCC3=O)c(=O)n2C2CCCCC2)c1` [Compound 185] the “Plant response rating, Flood, Sedge, Umbrella” value [1] was 60, the “Plant response rating, Sedge, Umbrella” value [1, 18] was 75 and the “Plant response rating, Sedge, Umbrella” value [1, 13] was 65. The “Sedge, Umbrella plant response rating” value [1, 19] was 65, the “Plant response rating, Flood, Ducksalad” value [2] was 75 and the “Plant response rating, Ducksalad” value [2, 18] was 70. For the same molecule, the “Plant response rating, Ducksalad” value [2, 13] was 75, the “Ducksalad plant response rating” value [2, 19] was 75 and the “Plant response rating, Flood, Rice” value (rice (Oryza sativa)) was 0. For the same molecule, the “Plant response rating, Rice” value (rice (Oryza sativa); [18]) was 0, the “Plant response rating, Rice” value (rice (Oryza sativa); [13]) was 0 and the “Rice plant response rating” value (rice (Oryza sativa); [19]) was 0. For the same molecule, the “Plant response rating, Flood, Barnyardgrass” value [3] was 0, the “Plant response rating, Barnyardgrass” value [3, 18] was 0 and the “Plant response rating, Barnyardgrass” value [3, 13] was 0. For the same molecule, the “Barnyardgrass plant response rating” value [3, 19] was 0, the “Plant response rating, Crabgrass, Large” value [4, 20] was 50 and the “Crabgrass, Large plant response rating” value [4, 21] was 70. For the same molecule, the “Plant response rating, Crabgrass, Large” value [4, 16] was 0, the “Plant response rating, Crabgrass, Large” value [4, 22] was 30 and the “Plant response rating, Velvetleaf” value [5, 20] was 90. For the same molecule, the “Velvetleaf plant response rating” value [5, 21] was 100, the “Plant response rating, Velvetleaf” value [5, 16] was 0 and the “Plant response rating, Velvetleaf” value [5, 22] was 50. The “Plant response rating, Corn” value (corn (Zea mays); [20]) was 0, the “Corn plant response rating” value (corn (Zea mays); [21]) was 50 and the “Plant response rating, Corn” value (corn (Zea mays); [16]) was 0. The “Plant response rating, Corn” value (corn (Zea mays); [22]) was 0, the “Plant response rating, Wheat” value [6, 20] was 0 and the “Wheat plant response rating” value [6, 21] was 0. For the same molecule, the “Plant response rating, Wheat” value [6, 16] was 0, the “Plant response rating, Wheat” value [6, 22] was 0 and the “Plant response rating, Barnyardgrass” value [7, 20] was 70. The “Barnyardgrass plant response rating” value [7, 21] was 90, the “Plant response rating, Barnyardgrass” value [7, 16] was 0 and the “Plant response rating, Barnyardgrass” value [7, 22] was 50. For the same molecule, the “Plant response rating, Morningglory” value [8, 20] was 100, the “Morningglory plant response rating” value [8, 21] was 100 and the “Plant response rating, Morningglory” value [8, 22] was 30. For the same molecule, the “Plant response rating, Foxtail, Giant” value [9, 20] was 50, the “Foxtail, Giant plant response rating” value [9, 21] was 80 and the “Plant response rating, Foxtail, Giant” value [9, 16] was 0. For the same molecule, the “Plant response rating, Foxtail, Giant” value [9, 22] was 50, the “Plant response rating, Pigweed” value [10, 20] was 90 and the “Pigweed plant response rating” value [10, 21] was 100. For the same molecule, the “Plant response rating, Pigweed” value [10, 16] was 0 and the “Plant response rating, Pigweed” value [10, 22] was 70.
